Data set [1] has as its system subjects with remission phase Type I diabetes. The experiment in a line: Sustacal meal with intravenous GLIP infusion (Example 1). The format is in vivo, human. As for the experimental part: 7 subjects with remission phase Type I diabetes were studied after ingestion of a standardised meal of Sustacal (Upjohn) (delivering […]). Subjects continued their normal insulin treatment programme on the day prior to the test and, on the day of the test, omitted their morning insulin injection and arrived fasting at 8:00 am. […] Infusion was continued for 120 minutes. Blood levels of glucose, C-peptide, gastrin, glucagon and HPP were monitored by standard radioimmunoassay methods in samples taken before and at intervals during the study, up to 180 minutes. On another test day, subjects were given the Sustacal meal alone and the same analytes were similarly monitored.

Data set [2] shares this test system. The experiment in a line: Sustacal meal with lower-dose GLIP infusion (Example 3). The format is in vivo, human. The settings on record: infusion 0.75 pmol/kg/min for 120 minutes after Sustacal meal, versus saline infusion; FIG. 3. The procedure: Four subjects with remission phase Type I diabetes were studied during infusion with 0.75 pm/kg/min-GLIP for 120 minutes after a Sustacal meal.
The test was conducted as described in Example 1 and blood glucose and C-peptice levels were measured. On a further test day, the subjects were studied during saline infusion after a similar Slistacal meal.

Another data set concerns normal volunteers. As to the kind of experiment: Sustacal meal preceded by subcutaneous GLIP in normal volunteers (Example 4). In kind it is in vivo, human. From the text: Results are shown in FIG. 4. *indicates statistically significant differences between treatments (p<0.05).
A further data set has as its system Type I diabetic subjects. As to the kind of experiment: Sustacal meal preceded by subcutaneous GLIP in Type I diabetics (Example 5). The format is in vivo, human. The settings on record: 100 μg GLIP subcutaneously prior to Sustacal meal. From the text:
Type I diabetic subjects were studied.
The results are shown in FIG. 5. indicates statistically significant differences between treatments (p<0.05).

A further data set has as its system humans and other mammals. The following applies: cited from earlier work.
In the next data set the test system is Type II diabetics. The settings on record: cited from earlier work.
For another data set, the system named is Type 1 diabetic subject. The experiment in a line: Subcutaneous GLIP along with insulin before Sustacal meal (Example 6).
Setting [3] is: subcutaneous injection of 00 gg GLIP immediately before Sustacal meal.

“Also recorded” adds a separate entry of the source. Some results are limits rather than exact numbers.

The values below come from patent US20020119146A1, “TREATMENT OF DIABETES” (priority 1994, published 2002).

Protocol for Type 1 diabetic subject: One Type 1 diabetic subject was given GLIP along with insulin and the effects on post-prandial glycaemia observed. The subject received 5 units of insulin and 50 μg GLIP as subcutaneous injections immediately prior to ingestion of a Sustacal meal as described in Example 1. Blood levels of GLIP were monitored by a standard radioimmunoassay method.

Turning to “Glucagon-like peptide 1(7-36)amide [GLIP]”, the “gastrin response / gastrin levels” value in data set [1] (IV infusion 1.2 pm/kg/min after Sustacal meal, FIG. 1 Panel E) is on record as “normal ga.trin response; also recorded: not significantly affected”. Also, the “blood glucose level after a meal” value in data set [1] (IV infusion 1.2 pm/kg/min for 120 minutes after Sustacal meal, FIG. 1 Panel A) was “excellent control of blood glucose level”. Further, the “secretion of pancreatic polypeptide (PP) after Sustacal meal” value in data set [1] (IV infusion 1.2 pm/kg/min, FIG. 1 Panel C) is on record as “this response was absent during GLIP infusion”. Further, in data set [2], the “increase in blood glucose” value is on record as “increase in glucose was less than in the control experiment” and the “rise in C-peptide” value was “rise in C-peptide was similar to the control experiment”. For the same substance, the “delays in increase in blood levels of glucose, HPP, C-peptide and insulin” value in the data set on normal volunteers (experiment repeated with 50 Ag dose of GLIP) is on record as “proportionally shorter”. Moreover, the “delays in increase in blood levels of glucose, HPP, C-peptide and insulin” value with normal volunteers (experiment repeated with 200 Ag dose of GLIP) is on record as “longer”. Further, in the data set with normal volunteers (setting [3]), the “increase in blood levels of C-peptide” value is on record as “delay in increase”, the “increase in blood levels of HPP” value was “delay in increase”, the “increase in blood levels of glucose” value was “delay in increase” and the “increase in blood levels of insulin” value is reported as “delay in increase”. The “blood glucose levels compared to control (no GLIP)” value in the data set on Type I diabetic subjects (morning insulin omitted, FIG. 5 Panel A) is listed as “lowering of blood glucose levels”. In addition, the “pancreatic polypeptide (HPP) levels” value with Type I diabetic subjects (FIG. 5 Panel D) is “delayed rise in pancreatic polypeptide (HPP) levels”. The “insulin secretion over control levels” value in the data set on Type I diabetic subjects (FIG. 5 Panels B and C) was “no enhancement of insulin secretion over control levels”. Besides, the gastric emptying result in the data set on humans and other mammals is “delay of gastric emptying”. Moreover, in the data set on Type II diabetics, the “effect between the peptide and oral hypoglycaemic agents” value was “synergistic effect”. Moreover, in the data set on Type 1 diabetic subject (50 μg GLIP subcutaneously with 5 units insulin, radioimmunoassay, FIG. 6 Panel E), the “clearance of GLIP from the blood” value is listed as “cleared from the blood in about two hours”. In addition, the “blood glucose after standard meal” value in the data set on Type 1 diabetic subject (50 gg GLIP with 5 units insulin (half the usual dose) subcutaneously before Sustacal meal, one subject, FIG. 6 Panel A) was no more than 8 mM.
